From paper PMC4809247 (Journal of medicinal chemistry, 2015)

Tests used:
[1] = Intrinsic clearance in rat liver microsomes; type: in vitro ADME; conditions: predicted hepatic clearance based on intrinsic clearance in rat liver microsomes
[2] = molecular target: T1, rat mGlu3 (Rattus norvegicus, UniProt P31422); conditions: calcium mobilization; average of n ≥ 3
[3] = molecular target: mGlu3 (Rattus norvegicus, UniProt P31422); conditions: multiple concentrations of compound
[4] = molecular target: T2, rat mGlu5 (Rattus norvegicus, UniProt P31424); assay: Calcium mobilization mGlu5 assay; type: cell-based; conditions: for mGlu5 pEC50 (± SEM): calcium mobilization, average of n ≥ 3 (n = 2 where marked)
[5] = Rat cassette PK study, IV dosing; conditions: in vivo, 0.2 mg/kg
[6] = system: marble burying; conditions: cited from earlier work
[7] = system: immobility time; conditions: cited from earlier work
[8] = molecular target: T3, rat mGlu2 (Rattus norvegicus, UniProt P31421); assay: mGlu2 calcium mobilization assay; type: cell-based; conditions: full CRC
[9] = molecular target: T3, rat mGlu2; conditions: cited from earlier work
[10] = molecular target: T1, rat mGlu3; assay: cell-based
[11] = molecular target: 5-HT2B (Homo sapiens, UniProt P41595); assay: 5-HT2B functional cell-based assay; conditions: agonist or antagonist
[12] = Mouse IP single time point tissue distribution; conditions: in vivo, 10 mg/kg, plasma concentration, 30 min post dose, n = 3
[13] = Mouse IP PK time course; type: in vivo; conditions: 10 mg/kg dose in marble burying study, estimated from DMPK data
[14] = system: immobility time; assay: Forced swim test; type: in vivo, rat; conditions: 56.6 mg/kg (highest dose); male Sprague–Dawley rats; 30 min pretreatment; 6 min session; p < 0.05 vs vehicle
[15] = system: other mGlus; type: cell-based; conditions: 10 μM compound, fold-shift experiments
[16] = system: panel of 68 clinically relevant GPCRs, ion channels, kinases, and transporters; type: binding; conditions: 10 μM; 68 targets
[17] = system: marble burying; assay: Marble burying assay in mice; conditions: 56.6 mg/kg; male CD-1 mice; 15 min pretreatment
[18] = molecular target: T2, rat mGlu5; conditions: cited from earlier work

T3 sequence (P31421 19-872): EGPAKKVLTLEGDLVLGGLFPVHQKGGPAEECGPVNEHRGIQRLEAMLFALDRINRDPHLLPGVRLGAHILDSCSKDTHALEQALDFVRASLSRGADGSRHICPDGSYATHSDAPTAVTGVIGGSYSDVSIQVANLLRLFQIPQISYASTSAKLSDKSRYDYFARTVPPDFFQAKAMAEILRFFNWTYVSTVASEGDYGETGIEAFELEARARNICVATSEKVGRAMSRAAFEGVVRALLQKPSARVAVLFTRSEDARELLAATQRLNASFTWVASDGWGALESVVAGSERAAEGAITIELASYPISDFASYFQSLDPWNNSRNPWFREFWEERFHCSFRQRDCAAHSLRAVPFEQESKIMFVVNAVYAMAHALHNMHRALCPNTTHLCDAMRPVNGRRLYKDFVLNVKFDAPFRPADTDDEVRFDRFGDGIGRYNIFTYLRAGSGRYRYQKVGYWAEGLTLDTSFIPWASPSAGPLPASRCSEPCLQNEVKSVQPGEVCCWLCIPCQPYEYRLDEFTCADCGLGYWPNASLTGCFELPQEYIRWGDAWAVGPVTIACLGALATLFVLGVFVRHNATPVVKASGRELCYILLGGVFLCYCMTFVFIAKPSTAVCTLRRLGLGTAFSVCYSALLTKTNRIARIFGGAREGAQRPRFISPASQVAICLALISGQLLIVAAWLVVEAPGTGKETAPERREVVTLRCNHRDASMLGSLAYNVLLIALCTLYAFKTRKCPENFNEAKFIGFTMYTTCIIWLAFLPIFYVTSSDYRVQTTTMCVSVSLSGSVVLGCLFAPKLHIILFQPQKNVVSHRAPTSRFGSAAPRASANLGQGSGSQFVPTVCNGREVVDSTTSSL
T2 sequence (P31424 21-1203): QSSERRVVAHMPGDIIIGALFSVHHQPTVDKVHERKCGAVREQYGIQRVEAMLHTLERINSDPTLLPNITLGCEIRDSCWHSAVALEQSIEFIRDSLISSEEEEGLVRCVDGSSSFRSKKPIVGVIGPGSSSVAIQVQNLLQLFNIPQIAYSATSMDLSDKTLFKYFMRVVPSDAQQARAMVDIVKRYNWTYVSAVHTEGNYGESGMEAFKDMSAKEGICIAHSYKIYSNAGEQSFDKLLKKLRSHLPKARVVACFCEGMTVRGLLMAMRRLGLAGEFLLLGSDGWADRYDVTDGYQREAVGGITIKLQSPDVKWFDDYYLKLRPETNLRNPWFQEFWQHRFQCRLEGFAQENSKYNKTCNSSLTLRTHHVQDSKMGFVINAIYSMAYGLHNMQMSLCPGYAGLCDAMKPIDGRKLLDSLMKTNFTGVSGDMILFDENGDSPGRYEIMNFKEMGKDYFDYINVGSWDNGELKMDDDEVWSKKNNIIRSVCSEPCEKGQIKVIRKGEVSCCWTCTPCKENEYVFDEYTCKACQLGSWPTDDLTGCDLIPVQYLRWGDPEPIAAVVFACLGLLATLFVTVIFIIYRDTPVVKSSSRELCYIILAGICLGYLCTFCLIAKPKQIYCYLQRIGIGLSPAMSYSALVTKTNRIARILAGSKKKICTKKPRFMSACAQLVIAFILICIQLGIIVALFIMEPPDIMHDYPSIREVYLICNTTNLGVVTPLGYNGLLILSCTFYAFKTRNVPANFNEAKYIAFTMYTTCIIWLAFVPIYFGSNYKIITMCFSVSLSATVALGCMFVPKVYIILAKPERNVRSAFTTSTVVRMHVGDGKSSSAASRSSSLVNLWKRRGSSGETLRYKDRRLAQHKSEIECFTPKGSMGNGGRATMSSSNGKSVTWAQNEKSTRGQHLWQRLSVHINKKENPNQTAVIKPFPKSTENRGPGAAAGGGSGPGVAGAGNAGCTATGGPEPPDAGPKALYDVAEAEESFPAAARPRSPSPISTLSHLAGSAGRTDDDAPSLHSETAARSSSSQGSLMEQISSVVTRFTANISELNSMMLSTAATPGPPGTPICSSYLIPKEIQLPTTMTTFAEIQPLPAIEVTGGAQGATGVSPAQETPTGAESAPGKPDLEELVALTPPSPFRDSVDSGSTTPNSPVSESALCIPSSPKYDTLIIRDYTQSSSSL
T1 sequence (P31422 23-879): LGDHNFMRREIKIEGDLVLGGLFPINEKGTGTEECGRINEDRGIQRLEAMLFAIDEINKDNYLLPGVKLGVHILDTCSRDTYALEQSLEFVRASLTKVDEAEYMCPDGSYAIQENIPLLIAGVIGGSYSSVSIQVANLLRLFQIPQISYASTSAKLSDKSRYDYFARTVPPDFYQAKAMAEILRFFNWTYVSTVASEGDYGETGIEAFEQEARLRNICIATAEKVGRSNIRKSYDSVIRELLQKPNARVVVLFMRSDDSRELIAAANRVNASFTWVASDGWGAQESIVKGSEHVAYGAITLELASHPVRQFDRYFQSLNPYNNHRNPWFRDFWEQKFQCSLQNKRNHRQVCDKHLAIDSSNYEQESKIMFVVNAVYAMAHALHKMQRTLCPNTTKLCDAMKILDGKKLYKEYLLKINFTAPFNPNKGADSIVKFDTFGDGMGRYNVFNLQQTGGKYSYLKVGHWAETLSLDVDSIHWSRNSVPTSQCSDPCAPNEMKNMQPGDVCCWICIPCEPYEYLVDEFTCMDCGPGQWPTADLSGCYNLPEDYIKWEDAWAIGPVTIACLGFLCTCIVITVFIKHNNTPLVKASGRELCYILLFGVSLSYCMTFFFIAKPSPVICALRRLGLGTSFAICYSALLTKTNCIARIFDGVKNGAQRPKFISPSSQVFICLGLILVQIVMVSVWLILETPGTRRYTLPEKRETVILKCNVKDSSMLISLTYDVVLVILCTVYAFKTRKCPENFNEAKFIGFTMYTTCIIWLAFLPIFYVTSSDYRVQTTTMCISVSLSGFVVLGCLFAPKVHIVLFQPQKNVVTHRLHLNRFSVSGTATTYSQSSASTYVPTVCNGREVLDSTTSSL
5-HT2B, sequence (P41595 whole entry, species assumed): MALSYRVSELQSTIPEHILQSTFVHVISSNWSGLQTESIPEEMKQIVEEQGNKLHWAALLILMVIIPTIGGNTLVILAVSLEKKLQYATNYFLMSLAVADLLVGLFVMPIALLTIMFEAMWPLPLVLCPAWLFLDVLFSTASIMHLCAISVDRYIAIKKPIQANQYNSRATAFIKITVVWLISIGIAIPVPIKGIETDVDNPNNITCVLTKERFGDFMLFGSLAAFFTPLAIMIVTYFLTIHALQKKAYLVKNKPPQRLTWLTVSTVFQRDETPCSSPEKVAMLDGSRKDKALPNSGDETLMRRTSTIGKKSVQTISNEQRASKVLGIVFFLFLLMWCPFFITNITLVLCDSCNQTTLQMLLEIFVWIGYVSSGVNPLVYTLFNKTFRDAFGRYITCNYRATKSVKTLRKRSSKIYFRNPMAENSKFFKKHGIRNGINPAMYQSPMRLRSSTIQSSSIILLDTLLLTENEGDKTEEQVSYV
mGlu3, sequence (P31422 23-879): as the sequence (P31422 23-879) above

SMILES | rat CLhep [1] | mGlu3 pIC50 (± SEM) [2] | mGlu5 pEC50 (± SEM) [4] | also measured
C[C@@H]1CN(c2cccc(F)c2)C(=O)c2cc(COc3ccc(F)cn3)nn21 [Compound 56] | 3.18 L/h/kg | 6.72 ± 0.08 |  | 
N#Cc1cc(C2=Nc3ccc(Br)cc3NC(=O)C2)ccn1 [Compound 111] |  |  |  | effect on the glutamate CRC (progressive fold-shift) [3]: characteristic rightward shift and depressed glutamate maximum
C[C@@H]1CN(c2c(F)cccc2F)C(=O)c2cc(COc3ccc(F)cn3)nn21 [Compound 68] | 3.88 L/h/kg |  |  | 
C[C@@H]1CN(c2ccccc2Cl)C(=O)c2cc(COc3ccc(F)cn3)nn21 [Compound 57] | 3.99 L/h/kg | 6.85 ± 0.16 |  | 
C[C@@H]1CN(c2ccc(F)cc2)C(=O)c2cc(COc3ccc(F)cc3)nn21 [Compound 24] |  | 6.34 ± 0.04 | 7.03 ± 0.05 | half-life [5]: > 1.5 h
N[C@]1(C(=O)O)[C@H]2[C@@H](C[C@H]1OCc1ccc(Cl)c(Cl)c1)[C@]2(F)C(=O)O [Compound 2] |  |  |  | inhibition of marble burying [6]: previously shown to inhibit marble burying; efficacy in FST [7]: efficacy
C[C@@H]1CN(c2cnccc2F)C(=O)c2cc(COc3ccc(Cl)cn3)nn21 [Compound 107] | 2.16 L/h/kg | 6.32 ± 0.03 | <4.5 | 
C[C@@H]1CN(c2ccc(F)cc2)C(=O)c2cc(COc3ccc(Cl)cn3)nn21 [Compound 48] |  |  |  | half-life [5]: ~2 h
C[C@@H]1CN(c2ccccc2F)C(=O)c2cc(COc3ccc(F)cn3)nn21 [Compound 55] | 3.88 L/h/kg |  |  | 
Cc1cccc(N2C[C@@H](C)n3nc(COc4ccc(F)cn4)cc3C2=O)c1 [Compound 61] | 3.5 L/h/kg | 6.67 ± 0.15 |  | 
C[C@@H]1CN(c2cncc(C#N)c2)C(=O)c2cc(COc3ccc(Cl)cn3)nn21 [Compound 109] | 1.37 L/h/kg | 6.22 ± 0.01 | <4.5 | 
N[C@](CC1c2ccccc2Oc2ccccc21)(C(=O)O)[C@H]1C[C@@H]1C(=O)O [Compound 1] |  |  |  | inhibition of marble burying [6]: previously shown to inhibit marble burying; efficacy in FST [7]: efficacy
C[C@@H]1CN(c2ccc(F)cc2)C(=O)c2cc(COc3ccccn3)nn21 [Compound 10] |  |  |  | mGlu2: inactive up to the top concentration tested [8]: > 30 µM
COc1ccc(C#Cc2ccc(C(=O)N3CCC[C@@H](CO)C3)cc2)cc1 [Compound 7] |  |  |  | selectivity versus mGlu2 [9]: > 15 fold
C[C@@H]1CN(c2cc(F)cc(C#N)c2)C(=O)c2cc(COc3ccc(Cl)cn3)nn21 [Compound 99] | 2.86 L/h/kg |  |  | IC50 [10]: 0.529 µM; half-life [5]: > 3 h
C[C@@H]1CN(c2cccc(Cl)c2)C(=O)c2cc(COc3ccc(F)cn3)nn21 [Compound 58] | 3.11 L/h/kg |  |  | 
C[C@@H]1CN(c2cccc(F)c2F)C(=O)c2cc(COc3ccc(F)cn3)nn21 [Compound 66] | 3.82 L/h/kg | 6.73 ± 0.16 |  | 
C[C@@H]1CN(c2cccnc2)C(=O)c2cc(COc3ccc(Cl)cn3)nn21 [Compound 101] | 2.52 L/h/kg | 6.22 ± 0.10 | <4.5 | 
C[C@@H]1CN(c2cncc(F)c2)C(=O)c2cc(COc3ccc(Cl)cn3)nn21 [Compound 108] | 1.6 L/h/kg |  | <4.5 | 
C[C@@H]1CN(c2ccccn2)C(=O)c2cc(COc3ccc(Cl)cn3)nn21 [Compound 100] | 4.17 L/h/kg | 6.48 ± 0.07 | <4.5 | 
C[C@@H]1CN(c2cccnc2F)C(=O)c2cc(COc3ccc(Cl)cn3)nn21 [Compound 106, (R)-2-(((5-Chloropyridin-2-yl)oxy)methyl)-5-(2-fluoropyridin-3-yl)-7-methyl-6,7-dihydropyrazolo[1,5-a]pyrazin-4(5H)-one] |  | 6.41 ± 0.05 | <4.5 | mGlu2: inactive up to the top concentration tested [8]: > 30 µM; 5-HT2B functional activity: no activity up to [11]: > 10 µM; concentration at 30 min [12]: 2.59 ± 0.29 µM; estimated peak CNS unbound exposure [13]: 564 nM; decrease in immobility time in FST [14]: significant effects in decreasing immobility time; effect on the orthosteric agonist CRC, other mGlus [15]: No significant effect; significant responses (>50% inhibition of radioligand binding) in panel [16]: only a single significant response; inhibition of marble burying at highest dose [17]: essentially complete inhibition
CCOc1ccc(OCc2cc3n(n2)[C@H](C)CN(c2ccc(F)cc2)C3=O)cc1 [Compound 38] |  | 5.94 ± 0.06 | <4.5 | mGlu5: no activity up to the highest concentration tested [4]: > 30 µM
C[C@@H]1CN(c2cc(F)ccc2F)C(=O)c2cc(COc3ccc(F)cn3)nn21 [Compound 67] | 2.98 L/h/kg |  |  | 
COc1ccc(C#Cc2ccc(C(=O)N3CCC[C@@H](O)C3)c(F)c2)cc1 [Compound 8] |  |  |  | mGlu5 activity [18]: devoid of both mGlu2 and mGlu5 activity; mGlu2 activity [9]: devoid of both mGlu2 and mGlu5 activity
C[C@@H]1CN(c2ccncc2)C(=O)c2cc(COc3ccc(F)cn3)nn21 [Compound 71] |  | 6.05 ± 0.04 | <4.5 | 
